Assay results from US8022206B2 (OSI Pharmaceuticals, LLC, priority 2008, dated 2011).
pIC50: −log10 of the molar value. Like-named read-outs stand apart in the source and are kept apart here.

Experiments:
RON (human) = RON (human) (Homo sapiens, UniProt Q04912); assay: RON (human) AlphaScreen kinase assay, Km of ATP; format: biochemical
In short: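 Detection used PT66 AlphaScreen beads added in Tris pH 7.5/NaCl/EDTA/BSA buffer, read after 1 h incubation. Vehicle-only DMSO wells served as controls.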

MET (human) = MET (human) (Homo sapiens, UniProt P08581); assay: MET (human) AlphaScreen kinase assay, Km of ATP; format: biochemical
Sequence of MET (human) (P08581 25-1390): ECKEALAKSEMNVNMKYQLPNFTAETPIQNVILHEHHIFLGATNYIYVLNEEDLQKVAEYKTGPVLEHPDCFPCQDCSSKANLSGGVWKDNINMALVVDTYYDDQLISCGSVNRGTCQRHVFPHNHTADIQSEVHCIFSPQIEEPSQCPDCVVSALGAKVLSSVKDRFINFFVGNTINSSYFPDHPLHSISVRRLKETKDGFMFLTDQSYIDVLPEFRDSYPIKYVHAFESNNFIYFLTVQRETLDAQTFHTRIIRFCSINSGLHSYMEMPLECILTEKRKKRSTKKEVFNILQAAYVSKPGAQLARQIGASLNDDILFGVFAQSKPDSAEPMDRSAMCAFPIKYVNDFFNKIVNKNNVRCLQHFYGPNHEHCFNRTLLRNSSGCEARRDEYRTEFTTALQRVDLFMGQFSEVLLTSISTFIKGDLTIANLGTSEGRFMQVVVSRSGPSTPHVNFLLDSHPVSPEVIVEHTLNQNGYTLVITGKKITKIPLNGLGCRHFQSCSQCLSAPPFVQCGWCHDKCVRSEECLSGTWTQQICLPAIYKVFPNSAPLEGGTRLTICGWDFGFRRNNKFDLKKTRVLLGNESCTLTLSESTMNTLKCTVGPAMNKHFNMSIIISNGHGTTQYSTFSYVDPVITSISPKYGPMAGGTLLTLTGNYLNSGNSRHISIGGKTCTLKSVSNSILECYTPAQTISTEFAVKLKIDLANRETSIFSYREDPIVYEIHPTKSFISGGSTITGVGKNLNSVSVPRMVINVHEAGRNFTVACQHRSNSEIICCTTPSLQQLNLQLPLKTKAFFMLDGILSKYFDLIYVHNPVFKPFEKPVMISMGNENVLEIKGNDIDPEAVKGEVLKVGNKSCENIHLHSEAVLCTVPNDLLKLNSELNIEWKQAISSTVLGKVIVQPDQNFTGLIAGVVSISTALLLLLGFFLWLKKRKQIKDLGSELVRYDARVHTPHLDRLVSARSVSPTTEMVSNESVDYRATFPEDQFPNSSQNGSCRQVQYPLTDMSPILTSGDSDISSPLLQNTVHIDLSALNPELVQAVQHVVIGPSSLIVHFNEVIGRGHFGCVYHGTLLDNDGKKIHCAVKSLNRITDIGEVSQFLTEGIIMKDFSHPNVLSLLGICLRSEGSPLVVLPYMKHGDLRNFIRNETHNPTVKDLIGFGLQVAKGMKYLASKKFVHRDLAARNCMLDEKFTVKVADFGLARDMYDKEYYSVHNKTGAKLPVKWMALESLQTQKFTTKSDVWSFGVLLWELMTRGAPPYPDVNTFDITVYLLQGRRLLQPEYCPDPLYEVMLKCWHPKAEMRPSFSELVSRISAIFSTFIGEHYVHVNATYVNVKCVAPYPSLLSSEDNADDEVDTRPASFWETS
In short: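 Human MET at lot-optimised concentration in 50 mM Tris pH 7.4 buffer with 1 mM DTT, compound at 1% DMSO final; enzyme starts the reaction, 60 min at RT.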

[1] = AlphaScreen, Km of ATP, read-out: RON biochemical IC50
[2] = AlphaScreen, Km of ATP, read-out: Met biochemical IC50

Sequence of RON (human) (Q04912 25-1400): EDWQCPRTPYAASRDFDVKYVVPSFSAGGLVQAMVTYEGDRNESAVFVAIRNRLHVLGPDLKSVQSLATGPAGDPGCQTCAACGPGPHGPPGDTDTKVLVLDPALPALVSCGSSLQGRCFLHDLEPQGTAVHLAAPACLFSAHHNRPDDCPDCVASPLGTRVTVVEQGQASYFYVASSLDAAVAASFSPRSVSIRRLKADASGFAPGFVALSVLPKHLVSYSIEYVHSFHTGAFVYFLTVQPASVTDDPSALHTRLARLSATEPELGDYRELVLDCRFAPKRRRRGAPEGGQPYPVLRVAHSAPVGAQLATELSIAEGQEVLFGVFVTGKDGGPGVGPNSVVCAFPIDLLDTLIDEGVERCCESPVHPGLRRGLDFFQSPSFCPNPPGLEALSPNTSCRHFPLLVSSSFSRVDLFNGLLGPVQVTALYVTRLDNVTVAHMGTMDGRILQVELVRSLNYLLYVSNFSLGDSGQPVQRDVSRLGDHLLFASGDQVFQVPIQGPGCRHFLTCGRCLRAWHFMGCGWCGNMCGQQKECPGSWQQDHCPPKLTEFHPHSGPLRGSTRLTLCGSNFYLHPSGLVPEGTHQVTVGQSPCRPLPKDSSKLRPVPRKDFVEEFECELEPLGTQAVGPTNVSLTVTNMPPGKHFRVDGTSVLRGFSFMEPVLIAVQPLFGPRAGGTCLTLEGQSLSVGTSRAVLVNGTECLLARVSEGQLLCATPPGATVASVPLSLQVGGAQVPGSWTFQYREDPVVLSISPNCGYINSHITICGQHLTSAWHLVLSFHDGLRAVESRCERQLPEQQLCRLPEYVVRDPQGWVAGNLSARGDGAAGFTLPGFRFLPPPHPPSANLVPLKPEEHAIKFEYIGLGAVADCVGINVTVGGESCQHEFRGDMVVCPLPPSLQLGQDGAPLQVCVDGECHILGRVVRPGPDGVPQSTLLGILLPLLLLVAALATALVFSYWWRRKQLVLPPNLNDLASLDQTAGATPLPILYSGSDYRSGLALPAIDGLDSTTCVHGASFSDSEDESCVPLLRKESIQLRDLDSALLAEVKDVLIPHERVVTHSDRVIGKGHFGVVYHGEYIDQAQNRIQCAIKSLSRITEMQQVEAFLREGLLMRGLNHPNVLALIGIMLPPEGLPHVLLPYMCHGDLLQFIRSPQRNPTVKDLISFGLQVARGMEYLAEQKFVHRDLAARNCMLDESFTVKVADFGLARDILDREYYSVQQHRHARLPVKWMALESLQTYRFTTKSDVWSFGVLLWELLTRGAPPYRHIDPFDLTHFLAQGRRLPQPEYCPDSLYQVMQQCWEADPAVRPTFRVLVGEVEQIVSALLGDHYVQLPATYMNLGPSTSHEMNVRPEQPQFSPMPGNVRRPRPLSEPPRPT

CCNC(=O)N1CCC(n2cc(-c3coc4c(O[C@H](C)c5c(Cl)ccc(F)c5Cl)c(N)ncc34)cn2)CC1 [Example 273, 4-(4-{6-Amino-7-[(1R)-1-(2,6-dichloro-3-fluorophenyl)ethoxy]furo[3,2-c]pyridin-3-yl}-1H-pyrazol-1-yl)-N-ethylpiperidine-1-carboxamide]
pIC50 (RON (human); [1]): 5.30 to 6.30
pIC50 (MET (human); [2]): 5.30 to 6.30

COC(=O)N1CCC(n2cc(-c3coc4c(O[C@H](C)c5c(Cl)ccc(F)c5Cl)c(N)ncc34)cn2)CC1 [Example 274, Methyl 4-(4-{6-Amino-7-[(1R)-1-(2,6-dichloro-3-fluorophenyl)ethoxy]furo[3,2-c]pyridin-3-yl}-1H-pyrazol-1-yl)piperidine-1-carboxylate]
pIC50 (RON (human); [1]): 5.30 to 6.30
pIC50 (MET (human); [2]): 5.30 to 6.30

C[C@@H](Oc1c(N)ncc2c(-c3cnn(C4CCN(S(C)(=O)=O)CC4)c3)coc12)c1c(Cl)ccc(F)c1Cl [Example 275, 7-[(1R)-1-(2,6-Dichloro-3-fluorophenyl)ethoxy]-3-{1-[1-(methyl-sulfonyl)piperidin-4-yl]-1H-pyrazol-4-yl}furo[3,2-c]pyridin-6-amine]
pIC50 (RON (human); [1]): 5.30 to 6.30
pIC50 (MET (human); [2]): 5.30 to 6.30

C[C@@H](Oc1c(N)ncc2c(-c3cnn(C4CCN(C=O)CC4)c3)coc12)c1c(Cl)ccc(F)c1Cl [Example 277, 4-(4-{6-Amino-7-[(1R)-1-(2,6-dichloro-3-fluorophenyl)ethoxy]furo[3,2-c]pyridin-3-yl}-1H-pyrazol-1-yl)piperidine-1-carbaldehyde]
pIC50 (RON (human); [1]): 5.30 to 6.30
pIC50 (MET (human); [2]): 5.30 to 6.30

CCN1CCC(n2cc(-c3coc4c(O[C@H](C)c5c(Cl)ccc(F)c5Cl)c(N)ncc34)cn2)CC1 [Example 278, 7-[(1R)-1-(2,6-Dichloro-3-fluorophenyl)ethoxy]-3-[1-(1-ethylpiperidin-4-yl)-1H-pyrazol-4-yl]furo[3,2-c]pyridin-6-amine]
pIC50 (RON (human); [1]): 5.30 to 6.30
pIC50 (MET (human); [2]): > 6.30

C[C@@H](Oc1c(N)ncc2c(-c3cncc(C(=O)NC(C)(C)C)c3)coc12)c1c(Cl)ccc(F)c1Cl [Example 280, 5-{6-Amino-7-[(R)-1-(2,6-dichloro-3-fluorophenyl)ethoxy]furo[3,2-c]pyridin-3-yl}-N-tert-butylnicotinamide]
pIC50 (RON (human); [1]): 4.70 to 5.30
pIC50 (MET (human); [2]): 5.30 to 6.30

CC(=O)N1CCN(c2ccc(-c3coc4c(O[C@H](C)c5c(Cl)ccc(F)c5Cl)c(N)ncc34)cn2)CC1 [Example 281, 1-[4-(5-{6-Amino-7-[(R)-1-(2,6-dichloro-3-fluorophenyl)ethoxy]furo[3,2-c]pyridin-3-yl}-pyridin-2-yl)-piperazin-1-yl]ethanone]
pIC50 (RON (human); [1]): 5.30 to 6.30
pIC50 (MET (human); [2]): > 6.30

C[C@@H](Oc1c(N)ncc2c(-c3cncc(C(=O)N4CCOCC4)c3)coc12)c1c(Cl)ccc(F)c1Cl [Example 282, (5-{6-Amino-7-[(R)-1-(2,6-dichloro-3-fluorophenyl)ethoxy]furo[3,2-c]pyridin-3-yl}pyridin-3-yl)morpholin-4-ylmethanone]
pIC50 (RON (human); [1]): 4.70 to 5.30
pIC50 (MET (human); [2]): 5.30 to 6.30

C[C@@H](Oc1c(N)ncc2c(-c3cnc(N4CCOCC4)nc3)coc12)c1c(Cl)ccc(F)c1Cl [Example 283, 7-[(R)-1-(2,6-Dichloro-3-fluorophenyl)ethoxy]-3-(2-morpholin-4-ylpyrimidin-5-yl)furo[3,2-c]pyridin-6-ylamine]
pIC50 (RON (human); [1]): 5.30 to 6.30
pIC50 (MET (human); [2]): 5.30 to 6.30

C[C@@H](Oc1c(N)ncc2c(-c3ccc(C(=O)N4CCC(=O)CC4)cc3)coc12)c1c(Cl)ccc(F)c1Cl [Example 284, 1-(4-{6-Amino-7-[(R)-1-(2,6-dichloro-3-fluorophenyl)-ethoxy]furo[3,2-c]pyridin-3-yl}benzoyl)piperidin-4-one]
pIC50 (RON (human)): 5.30 to 6.30
pIC50 (MET (human)): 5.30 to 6.30

COCCNC(=O)c1ccc(-c2coc3c(O[C@H](C)c4c(Cl)ccc(F)c4Cl)c(N)ncc23)cc1 [Example 285, 4-{6-Amino-7-[(R)-1-(2,6-dichloro-3-fluorophenyl)ethoxy]furo[3,2-c]pyridin-3-yl}-N-(2-methoxyethyl)benzamide]
pIC50 (RON (human); [1]): 5.30 to 6.30
pIC50 (MET (human); [2]): 5.30 to 6.30

COCCCNC(=O)c1ccc(-c2coc3c(O[C@H](C)c4c(Cl)ccc(F)c4Cl)c(N)ncc23)cc1 [Example 286, 4-{6-Amino-7-[(R)-1-(2,6-dichloro-3-fluorophenyl)ethoxy]furo[3,2-c]pyridin-3-yl}-N-(3-methoxypropyl)-benzamide]
pIC50 (RON (human); [1]): 5.30 to 6.30
pIC50 (MET (human); [2]): 5.30 to 6.30

C[C@@H](Oc1c(N)ncc2c(-c3ccc(C(=O)NCCO)cc3)coc12)c1c(Cl)ccc(F)c1Cl [Example 287, 4-{6-Amino-7-[(R)-1-(2,6-dichloro-3-fluorophenyl)ethoxy]furo[3,2-c]pyridin-3-yl}-N-(2-hydroxyethyl)benzamide]
pIC50 (RON (human); [1]): 5.30 to 6.30
pIC50 (MET (human); [2]): 5.30 to 6.30

C[C@@H](Oc1c(N)ncc2c(-c3ccc(C(=O)NCCCO)cc3)coc12)c1c(Cl)ccc(F)c1Cl [Example 288, 4-{6-Amino-7-[(R)-1-(2,6-dichloro-3-fluorophenyl)ethoxy]furo[3,2-c]pyridin-3-yl}-N-(3-hydroxypropyl)benzamide]
pIC50 (RON (human); [1]): 5.30 to 6.30
pIC50 (MET (human); [2]): 5.30 to 6.30

CNC(=O)c1ccc(-c2coc3c(O[C@H](C)c4c(Cl)ccc(F)c4Cl)c(N)ncc23)cc1 [Example 289, 4-{6-Amino-7-[(R)-1-(2,6-dichloro-3-fluorophenyl)ethoxy]furo[3,2-c]pyridin-3-yl}-N-methylbenzamide]
pIC50 (RON (human); [1]): 5.30 to 6.30
pIC50 (MET (human); [2]): 5.30 to 6.30

C[C@@H](Oc1c(N)ncc2c(-c3ccc(C(=O)N4CCCCC4)cc3)coc12)c1c(Cl)ccc(F)c1Cl [Example 290, (4-{6-Amino-7-[(R)-1-(2,6-dichloro-3-fluorophenyl)ethoxy]furo[3,2-c]pyridin-3-yl}phenyl)piperidin-1-ylmethanone]
pIC50 (RON (human); [1]): 5.30 to 6.30
pIC50 (MET (human); [2]): 5.30 to 6.30

C[C@@H](Oc1c(N)ncc2c(-c3ccc(CN4CCOCC4)s3)coc12)c1c(Cl)ccc(F)c1Cl [Example 291]
pIC50 (RON (human); [1]): 5.30 to 6.30
pIC50 (MET (human); [2]): 5.30 to 6.30

COC(=O)c1csc(-c2coc3c(O[C@H](C)c4c(Cl)ccc(F)c4Cl)c(N)ncc23)c1 [Example 292, 5-{6-Amino-7-[(R)-1-(2,6-dichloro-3-fluorophenyl)ethoxy]furo[3,2-c]pyridin-3-yl}thiophene-3-carboxylic acid methyl ester]
pIC50 (RON (human); [1]): 5.30 to 6.30
pIC50 (MET (human); [2]): 5.30 to 6.30

C[C@@H](Oc1c(N)ncc2c(-c3ccc(C(=O)N4CCCN(C)CC4)cc3)coc12)c1c(Cl)ccc(F)c1Cl [Example 293, (4-{6-Amino-7-[(R)-1-(2,6-dichloro-3-fluorophenyl)ethoxy]furo[3,2-c]pyridin-3-yl}phenyl)-(4-methyl-[1,4]diazepan-1-yl)methanone]
pIC50 (RON (human); [1]): > 6.30
pIC50 (MET (human); [2]): > 6.30

C[C@@H]1CN[C@@H](C)CN1C(=O)c1ccc(-c2coc3c(O[C@H](C)c4c(Cl)ccc(F)c4Cl)c(N)ncc23)cc1 [Example 295]
pIC50 (RON (human); [1]): 5.30 to 6.30
pIC50 (MET (human); [2]): 5.30 to 6.30

C[C@@H](Oc1c(N)ncc2c(-c3ccc(C(=O)N4CCC(O)CC4)cc3)coc12)c1c(Cl)ccc(F)c1Cl [Example 296, (4-{6-Amino-7-[(R)-1-(2,6-dichloro-3-fluorophenyl)ethoxy]furo[3,2-c]pyridin-3-yl}phenyl)-(4-hydroxypiperidin-1-yl)methanone]
pIC50 (RON (human); [1]): 5.30 to 6.30
pIC50 (MET (human); [2]): 5.30 to 6.30

C[C@@H]1CN(C(=O)c2ccc(-c3coc4c(O[C@H](C)c5c(Cl)ccc(F)c5Cl)c(N)ncc34)cc2)C[C@H](C)O1 [Example 297, (4-{6-Amino-7-[(R)-1-(2,6-dichloro-3-fluorophenyl)ethoxy]-furo[3,2-c]pyridin-3-yl}phenyl)-(2,6-cis-dimethylmorpholin-4-yl)methanone]
pIC50 (RON (human); [1]): 5.30 to 6.30
pIC50 (MET (human); [2]): 5.30 to 6.30
